According to patent publication US20250000837A1, “METHOD FOR TREATING RETINAL DEGENERATION” (SMILEBIOTEK ZHUHAI LIMITED, priority 2021, published 2025):

Legend:
[1] = system: Crb1^rd8/rd8 mouse suffering from fundus degenerative retinopathy; assay: Intragastric administration therapy of Crb1^rd8/rd8 mouse suffering from fundus degenerative retinopathy; count of fundus light spots; type: in vivo; conditions: for Eyes with slight decrease of crystalline lens transparency (fundus light spots cannot be observed clearly): 0.3 g/kg intragastric; for Change of spots 4 weeks after drug administration / Change of spots 2 weeks after drug administration: change of number of fundus light spots, Crb1^rd8/rd8 mouse, mean ± s; for Change of spots 4 weeks after drug administration: 0.3 g/kg intragastric once every other day for 4 weeks, P = 0.0005 vs model control group; for Change of spots 2 weeks after drug administration: 0.3 g/kg intragastric once every other day, P = 0.1518 vs model control group
Procedure: The mouse is anaesthetized and pupils are dilated. A cornea remains moist by applying hydroxypropyl methylcellulose eye drops regularly. A mouse fundus photo is obtained by using a Micron IV mouse fundus camera (Phoenix Research Laboratories, Inc., Pleasanton, CA, USA).
When a sample for test is prepared, 4 mL of castor oil which is already autoclaved is measured, 1.2 g of compound 6 powder is weighted, 1-2 mL of castor oil is added, full grinding is performed, a ground drug and residual castor oil are all transferred to a 50 mL tube with 36 mL ultrapure water to be oscillated and uniformly mixed for still standing overnight, so a compound 6 suspension with a concentration being 30 mg/mL is prepared, and the prepared drug liquid is labeled, saved at a normal temperature and used up within a month.
• Species and strains: Crb1^rd8/rd8 mouse • Grade: SPF grade • Quantity and gender: 18 mice, either gender • Weight range: 16-24 g • Supply unit: Gempharmatech Co., Ltd.
When drug administration starts, a healthy one-month-old Crb1^rd8/rd8 mouse is selected for an experiment.
Animals are hierarchically divided according to weights and then randomly divided into a model control group and a compound 6 group.
Drug administration route and method: intragastric administration, 10.0 mL/kg weight
Drug administration frequency and time limit: once every other day, for 4 weeks
Dosage of the compound 6 is 0.3 g/kg weight for the mouse and is converted according to previous clinical medication.
One-month-old Crb1^rd8/rd8 mice are randomly divided into the model control group and the compound 6 drug administration group. A solvent or a compound 6 drug is administered intragastrically to the animals, a dosage of the compound 6 is 0.3 g/kg, once every other day, continuous drug administration for 4 weeks. The number of fundus light slots 2 weeks and 4 weeks after the mouse is administered intragastrically is recorded for analysis and comparison.
A change of the number of fundus light spots of the mice at each time point after drug administration is used as a parameter, and SPSS software is used for the statistic analysis. A statistical result is represented by X+s; and an inspection level=0.05, and an average of experiment data and statistically processed data remain 2 decimal places.

[2] = system: drusen-like lesion in retinal tissue of a macaque; conditions: administered to vitreous humor; cited from earlier work

Structure (SMILES)	Inhibition of fundus degenerative retinopathy ([1]; Crb1^rd8/rd8 mice, dosage of 0.3 g/kg)	Eyes with slight decrease of crystalline lens transparency (fundus light spots cannot be observed clearly) ([1]; Week 2 of the experiment, attributed to anesthesia, correlation with compound not excluded)	Eyes with slight decrease of crystalline lens transparency (fundus light spots cannot be observed clearly) ([1]; Week 4 of the experiment, 1/18 eye also in model control group)	Change of spots 4 weeks after drug administration [1]	Change of spots 4 weeks after drug administration ([1]; listed as compound 6)	Change of spots 2 weeks after drug administration [1]	Change of spots 2 weeks after drug administration ([1]; listed as compound 6)	Size of the drusen-like lesion in retinal tissue compared with a control [2]
CCCCCCCCOC(=O)c1cc(O)c(O)c(O)c1 [Compound 6, octyl gallate]	effectively inhibit	2/18	1/18	−3.63 ± 4.06	−3.63±4.06	1.31 ± 3.18	1.31±3.18	–
CN[C@H](CC(C)C)C(=O)N[C@H]1C(=O)N[C@@H](CC(N)=O)C(=O)N[C@H]2C(=O)N[C@H]3C(=O)N[C@H](C(=O)N[C@H](C(=O)O)c4cc(O)cc(O)c4-c4cc3ccc4O)[C@H](O)c3ccc(c(Cl)c3)Oc3cc2cc(c3O[C@@H]2O[C@H](CO)[C@@H](O)[C@H](O)[C@H]2O[C@H]2C[C@](C)(N)[C@H](O)[C@H](C)O2)Oc2ccc(cc2Cl)[C@H]1O [vancomycin]	–	–	–	–	–	–	–	reduce a size of the drusen-like lesion
